These are literature values, as cited in patent publication US7070816B2, “Methods for treating prostatic intraepithelial neoplasia with herbal compositions” (New Chapter, Inc., priority 2003, dated 2006).

One series addresses T1, COX-2 (Homo sapiens, UniProt P35354).
T1 sequence (P35354 18-604): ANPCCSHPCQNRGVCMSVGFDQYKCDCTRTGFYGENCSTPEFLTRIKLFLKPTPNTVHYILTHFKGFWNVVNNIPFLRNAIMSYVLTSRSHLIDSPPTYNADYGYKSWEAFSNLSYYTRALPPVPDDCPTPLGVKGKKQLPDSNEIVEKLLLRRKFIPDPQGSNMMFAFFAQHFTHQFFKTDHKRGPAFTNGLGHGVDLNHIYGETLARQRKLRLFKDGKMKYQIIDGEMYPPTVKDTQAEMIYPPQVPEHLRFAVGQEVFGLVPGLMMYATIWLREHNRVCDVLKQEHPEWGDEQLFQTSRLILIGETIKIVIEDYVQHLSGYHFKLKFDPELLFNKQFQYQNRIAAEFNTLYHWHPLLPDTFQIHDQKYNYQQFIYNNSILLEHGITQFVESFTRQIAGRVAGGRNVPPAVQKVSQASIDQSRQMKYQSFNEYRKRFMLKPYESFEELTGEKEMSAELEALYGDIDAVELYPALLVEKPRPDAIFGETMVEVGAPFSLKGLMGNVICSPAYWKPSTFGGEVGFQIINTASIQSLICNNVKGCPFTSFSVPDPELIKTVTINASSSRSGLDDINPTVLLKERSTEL

The next series deals with COX-1 (Homo sapiens, UniProt P23219).
Another series addresses T2, 5-lipoxygenase (Homo sapiens, UniProt P09917).
T2 sequence (P09917 1-674): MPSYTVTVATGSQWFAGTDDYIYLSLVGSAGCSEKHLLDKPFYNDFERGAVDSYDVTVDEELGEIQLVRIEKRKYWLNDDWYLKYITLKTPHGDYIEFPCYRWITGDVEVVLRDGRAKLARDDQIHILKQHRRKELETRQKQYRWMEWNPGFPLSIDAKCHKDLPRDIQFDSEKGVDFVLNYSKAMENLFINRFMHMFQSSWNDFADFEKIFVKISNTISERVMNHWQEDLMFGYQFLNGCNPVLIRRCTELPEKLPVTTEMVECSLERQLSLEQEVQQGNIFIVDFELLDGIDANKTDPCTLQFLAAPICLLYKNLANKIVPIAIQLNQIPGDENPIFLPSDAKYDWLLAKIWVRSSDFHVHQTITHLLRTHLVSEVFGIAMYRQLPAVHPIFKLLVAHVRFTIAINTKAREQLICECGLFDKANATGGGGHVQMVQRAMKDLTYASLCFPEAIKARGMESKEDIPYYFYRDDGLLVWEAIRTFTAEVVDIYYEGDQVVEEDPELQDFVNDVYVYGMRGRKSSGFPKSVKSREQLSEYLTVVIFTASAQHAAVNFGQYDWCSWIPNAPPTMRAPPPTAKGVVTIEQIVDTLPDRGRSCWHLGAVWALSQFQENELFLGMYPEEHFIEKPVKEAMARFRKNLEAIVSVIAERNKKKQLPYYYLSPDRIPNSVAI

COX-1, sequence (P23219 24-599): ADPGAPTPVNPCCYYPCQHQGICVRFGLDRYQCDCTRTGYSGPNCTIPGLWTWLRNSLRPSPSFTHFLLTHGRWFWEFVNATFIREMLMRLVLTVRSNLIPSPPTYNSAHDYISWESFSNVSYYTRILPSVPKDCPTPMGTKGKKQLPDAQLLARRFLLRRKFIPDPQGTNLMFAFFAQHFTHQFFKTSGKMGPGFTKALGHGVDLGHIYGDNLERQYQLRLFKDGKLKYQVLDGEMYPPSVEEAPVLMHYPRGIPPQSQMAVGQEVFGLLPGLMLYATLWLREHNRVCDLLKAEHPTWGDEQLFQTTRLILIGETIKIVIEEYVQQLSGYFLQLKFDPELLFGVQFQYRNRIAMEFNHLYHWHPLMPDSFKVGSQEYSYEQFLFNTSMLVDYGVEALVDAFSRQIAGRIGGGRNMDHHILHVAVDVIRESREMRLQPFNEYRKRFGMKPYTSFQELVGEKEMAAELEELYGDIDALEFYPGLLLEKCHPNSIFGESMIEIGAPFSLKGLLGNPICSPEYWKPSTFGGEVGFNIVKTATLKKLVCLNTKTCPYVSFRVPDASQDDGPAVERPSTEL

As for `Oc1cc(O)c2c(c1)O[C@H](c1ccc(O)c(O)c1)[C@@H](O)C2` [(+)-catechin], the COX-2 inhibition entry on COX-2 is “COX-1 and COX-2 inhibitors”. Further, on COX-1, the COX-1 inhibition result was “COX-1 and COX-2 inhibitors”.

Regarding `COc1ccc2cc3[n+](cc2c1OC)CCc1cc2c(cc1-3)OCO2` [Berberine], the COX-2 inhibition result on COX-2 is “inhibit COX-2”. The COX-1 inhibition result on COX-1 is listed as “without inhibiting COX-1 activity”.

Consider `C=CCc1ccc(O)c(OC)c1` [Eugenol], for which the 5-lipoxygenase inhibition at 5-lipoxygenase was 5-lipoxygenase inhibitor.

On to `C[C@H]1[C@H](C)CC[C@]2(C(=O)O)CC[C@]3(C)C(=CC[C@@H]4[C@@]5(C)CC[C@H](O)C(C)(C)[C@@H]5CC[C@]43C)[C@H]12` [Ursolic acid], for which, on COX-2, the COX-2 inhibition entry is given as “significant COX-2 inhibitory effect”.

With `O=C(O)c1ccccc1O` [salicylic acid], on COX-2, the COX-2 inhibition entry is reported as “COX-2 inhibitor”.

Regarding gingerols, in the series on cyclooxygenase, the cyclooxygenase inhibition result was “inhibit cyclooxygenase”.

Regarding shogaols, in the series on cyclooxygenase, the cyclooxygenase inhibition entry is given as “inhibit cyclooxygenase”.
